In article PMC4446596, “Functional Diversity of Anti-Lipopolysaccharide Factor Isoforms in Shrimp and Their Characters Related to Antiviral Activity” (Marine Drugs, 2015):
Where a SMILES comes first, the peptide text is derived from it.

Legend:
WSSV = assay: Antiviral activity detection: WSSV pre-incubated with peptide injected into E. carinicauda, in vivo WSSV copy number; parameters: species or system Exopalaemon carinicauda; conditions: E. carinicauda pleopods, 24 h post injection; WSSV (10^3 copies/μL) pre-incubated 2 h at room temperature with 50 μM peptide, 10 μL injected; VP28 real-time PCR; n = 15; WSSV group 1.21 × 10^5, blank 1.31 × 10^3
Protocol: Exopalaemon carinicauda is being regarded as a good crustacean model animal for WSSV infection experiments. In this study, healthy E. carinicauda with a body length of 5.43 ± 0.30 cm and a body weight of 2.62 ± 0.42 g were used as experimental animals for WSSV infection assay. Animals were acclimatized in the aerated seawater at 25 °C for 1 day before experiments.
In order to learn the effect of synthetic LBD peptides on WSSV infection, WSSV pre-incubated with different peptides was injected into E. carinicauda and the WSSV copy number in the pleopods of E. carinicauda was detected. E. carinicauda was classified into 13 groups and each group contained 18 to 20 individuals. The 13 groups were named as Blank, WSSV, pGFP, LBD1, LBD2, LBD3, LBD4, LBD5, LBD6, LBD7, sLBD2, LBD2-K and LBD4+K, respectively. Synthetic peptides were diluted into 50 μM with PBS (pH 7.4). WSSV was incubated with each peptide solution for 2 h at room temperature with a final concentration 10^3 copies/μL. […] For WSSV group, each shrimp was injected with 10 μL WSSV incubated with PBS (pH 7.4) for 2 h at room temperature. For the other groups (LBD1–LBD7, sLBD2, LBD2-K and LBD4+K), each shrimp was injected with 10 μL of WSSV solution after incubation with corresponding synthetic peptides, respectively. At 24 h post injection (hpi), the pleopods of 15 shrimps in each group were collected and the pleopods from three individuals were put together as one sample. Total DNA of each sample was extracted using the Genomic DNA Kit (Tiangen, China). The viral copy number was measured by detecting the level of VP28 using real-time PCR as described previously.

E. coli = assay: Inhibition zone test; format: cell-based, Escherichia coli; conditions: 20 μL of 64 μM peptide in PBS pH 7.4 on 6 mm filter paper, solid LB plate, 37 °C, 24 h
Protocol: (§1) Gram-negative bacteria, including Escherichia coli and Aeromonas hydrophila, and Gram-positive bacteria, including Micrococcus luteus and Bacillus simplex were used for antibacterial analyses. The strains were incubated in fresh LB medium overnight at 37 °C for E. coli, M. luteus and 28 °C for A. hydrophila, B. simplex.
(§2) The antibacterial activities of LBD peptides were examined by inhibition zone test. The overnight cultures of bacteria were diluted 100 times and cultured in LB medium at 37 °C (E. coli and M. luteus) or 28 °C (A. hydrophila and B. simplex) for 6 h. These cultures were then diluted 100 times with LB medium separately, and 200 μL solutions from each diluted cultures was taken out and spread on the solid LB medium plate uniformly. Sterile filter paper with a diameter of 6 mm was put on the surface of solid LB medium gently. Twenty microliters of 64 μM peptide solution dissolved in PBS (pH 7.4) was added to the center of filter paper with a diameter of 6 mm. Twenty microliters PBS and 20 μL of 64 μM pGFP peptide were used as negative controls. […] ampicillin solutions was used as the positive control for E. coli, M. luteus and B. simplex culture, and 50 μM kanamycin sulfates was used as the positive control for A. hydrophila culture. The plates were cultured at 37 °C (E. coli and M. luteus) or 28 °C (A. hydrophila and B. simplex) for 24 h.

A. hydrophila = assay: Inhibition zone test; format: cell-based, Aeromonas hydrophila; conditions: 20 μL of 64 μM peptide in PBS pH 7.4 on 6 mm filter paper, solid LB plate, 28 °C, 24 h
Protocol: as §1, §2

M. luteus = assay: Inhibition zone test; format: cell-based, Micrococcus luteus; conditions: 20 μL of 64 μM peptide in PBS pH 7.4 on 6 mm filter paper, solid LB plate, 37 °C, 24 h
Protocol: as §1, §2

## CC[C@H](C)[C@@H]1NC(=O)[C@H](Cc2ccccc2)NC(=O)[C@H](Cc2ccc(O)cc2)NC(=O)[C@H](CC(C)C)NC(=O)[C@H](CCC(=O)O)NC(=O)[C@H](Cc2ccccc2)NC(=O)CNC(=O)[C@H](CCC(N)=O)NC(=O)[C@H]([C@@H](C)CC)NC(=O)[C@H](CC(=O)O)NC(=O)[C@@H]2CCCN2C(=O)[C@H](CCCCN)NC(=O)[C@H](C(C)C)NC(=O)[C@H](CO)NC(=O)[C@H](Cc2ccc(O)cc2)NC(=O)[C@H](CO)NC(=O)[C@@H](NC(=O)[C@H](CO)NC(C)=O)CSSC[C@@H](C(=O)N2CCC[C@H]2C(N)=O)NC(=O)[C@H]([C@@H](C)O)NC(=O)[C@H](C(C)C)NC(=O)[C@H](CO)NC(=O)CNC1=O [LBD6] (HELM PEPTIDE1{[ac].S.C.S.Y.S.V.K.P.D.I.Q.G.F.E.L.Y.F.I.G.S.V.T.C.P.[am]}$PEPTIDE1,PEPTIDE1,3:R3-24:R3$$$V2.0)
WSSV
  WSSV copy number: 1.55 × 10^5 copies/ng DNA
E. coli
  Inhibition zone: apparent inhibition zones

## CSCC[C@@H]1NC(=O)[C@H](CCCNC(=N)N)NC(=O)CNC(=O)[C@H](CCCNC(=N)N)NC(=O)[C@H](Cc2ccccc2)NC(=O)[C@H](Cc2ccc(O)cc2)NC(=O)[C@H](CC(C)C)NC(=O)[C@H](CCC(N)=O)NC(=O)[C@H](Cc2c[nH]c3ccccc23)NC(=O)[C@H](CCCNC(=N)N)NC(=O)[C@H](CCCCN)NC(=O)[C@H](Cc2ccccc2)NC(=O)[C@H](CCCCN)NC(=O)[C@@H]2CCCN2C(=O)[C@H]([C@@H](C)O)NC(=O)[C@H](C(C)C)NC(=O)[C@H](CC(N)=O)NC(=O)[C@H](Cc2ccccc2)NC(=O)[C@H](CO)NC(=O)[C@@H](NC(=O)[C@H](Cc2ccc(O)cc2)NC(C)=O)CSSC[C@@H](C(=O)N2CCC[C@H]2C(N)=O)NC(=O)[C@H](Cc2c[nH]c3ccccc23)NC1=O [LBD2] (HELM PEPTIDE1{[ac].Y.C.S.F.N.V.T.P.K.F.K.R.W.Q.L.Y.F.R.G.R.M.W.C.P.[am]}$PEPTIDE1,PEPTIDE1,3:R3-24:R3$$$V2.0)
A. hydrophila
  Inhibition zone: exhibited inhibition zones
M. luteus
  Inhibition zone: Obvious inhibition zones
WSSV
  WSSV copy number: 1.40 × 10^3 copies/ng DNA

## Ac-S(CRYSQRPSFKRWELYFNGRMWC)P-NH2 (disulfide) [LBD4+K, same as LBD4 except for the replacement of a tyrosine residue by a lysine residue]
WSSV
  WSSV copy number: 3.40 × 10^3 copies/ng DNA

## Ac-FKRWQLYFRG-NH2 [sLBD2, a part (ten amino acid residues) of LBD]
WSSV
  WSSV copy number: 4.04 × 10^3 copies/ng DNA

## CC[C@H](C)[C@@H]1NC(=O)[C@H](Cc2ccccc2)NC(=O)[C@H](Cc2ccc(O)cc2)NC(=O)[C@H](CC(C)C)NC(=O)[C@H](CCC(N)=O)NC(=O)[C@H](Cc2c[nH]c3ccccc23)NC(=O)[C@H](CCCNC(=N)N)NC(=O)[C@H](CCC(N)=O)NC(=O)[C@H](Cc2ccccc2)NC(=O)[C@H]([C@@H](C)O)NC(=O)[C@@H]2CCCN2C(=O)[C@H](CCCCN)NC(=O)[C@H](C(C)C)NC(=O)[C@H](CO)NC(=O)[C@H](Cc2ccc(O)cc2)NC(=O)[C@H](C(C)C)NC(=O)[C@@H](NC(=O)[C@H](Cc2ccc(O)cc2)NC(C)=O)CSSC[C@@H](C(=O)N2CCC[C@H]2C(N)=O)NC(=O)[C@H](Cc2c[nH]c3ccccc23)NC(=O)[C@H](CCSC)NC(=O)[C@H](CO)NC(=O)CNC1=O [LBD3] (HELM PEPTIDE1{[ac].Y.C.V.Y.S.V.K.P.T.F.Q.R.W.Q.L.Y.F.I.G.S.M.W.C.P.[am]}$PEPTIDE1,PEPTIDE1,3:R3-24:R3$$$V2.0)
M. luteus
  Inhibition zone: Obvious inhibition zones
WSSV
  WSSV copy number: 1.19 × 10^5 copies/ng DNA

## CC[C@H](C)[C@@H]1NC(=O)[C@H](Cc2ccc(O)cc2)NC(=O)[C@@H]2CCCN2C(=O)[C@H](CCCCN)NC(=O)[C@H](C(C)C)NC(=O)[C@H]([C@@H](C)O)NC(=O)[C@H](Cc2ccccc2)NC(=O)[C@H](CCCCN)NC(=O)[C@@H](NC(=O)[C@H](CCC(=O)O)NC(C)=O)CSSC[C@@H](C(=O)N2CCC[C@H]2C(N)=O)NC(=O)[C@H](Cc2c[nH]c3ccccc23)NC(=O)[C@H](CCSC)NC(=O)[C@H](CCCNC(=N)N)NC(=O)CNC(=O)[C@H](CCCCN)NC(=O)[C@H](Cc2ccc(O)cc2)NC(=O)[C@H](Cc2ccc(O)cc2)NC(=O)[C@H](CC(C)C)NC(=O)[C@H](CCC(N)=O)NC(=O)[C@H](Cc2ccccc2)NC(=O)[C@H](CCCNC(=N)N)NC(=O)[C@H](CCCCN)NC1=O [LBD7] (HELM PEPTIDE1{[ac].E.C.K.F.T.V.K.P.Y.I.K.R.F.Q.L.Y.Y.K.G.R.M.W.C.P.[am]}$PEPTIDE1,PEPTIDE1,3:R3-24:R3$$$V2.0)
A. hydrophila
  Inhibition zone: exhibited inhibition zones
WSSV
  WSSV copy number: 5.07 × 10^3 copies/ng DNA
E. coli
  Inhibition zone: apparent inhibition zones

## Ac-Y(CSFNVTPKFQRWQLYFRGRMWC)P-NH2 (disulfide) [LBD2-K, same as LBD2 except for the replacement of a lysine residue by a glutamine residue]
WSSV
  WSSV copy number: 5.14 × 10^4 copies/ng DNA

## CC(=O)N[C@@H](Cc1ccc(O)cc1)C(=O)N[C@H]1CSSC[C@@H](C(=O)N2CCC[C@H]2C(N)=O)NC(=O)[C@H](CCCCN)NC(=O)[C@H](CC(C)C)NC(=O)[C@H](CCC(=O)O)NC(=O)[C@H](C)NC(=O)[C@H](CCCNC(=N)N)NC(=O)[C@H](Cc2ccc(O)cc2)NC(=O)[C@H](Cc2c[nH]cn2)NC(=O)[C@H](C(C)C)NC(=O)[C@H](CCC(=O)O)NC(=O)[C@H](CC(C)C)NC(=O)[C@H](CCCCN)NC(=O)[C@H](CCCCN)NC(=O)[C@H](CC(C)C)NC(=O)[C@H](Cc2ccc(O)cc2)NC(=O)[C@@H]2CCCN2C(=O)[C@H](CO)NC(=O)[C@H](CCCNC(=N)N)NC(=O)[C@H](CO)NC(=O)[C@H](CC(C)C)NC(=O)[C@H](CC(C)C)NC1=O [LBD5] (HELM PEPTIDE1{[ac].Y.C.L.L.S.R.S.P.Y.L.K.K.L.E.V.H.Y.R.A.E.L.K.C.P.[am]}$PEPTIDE1,PEPTIDE1,3:R3-24:R3$$$V2.0)
WSSV
  WSSV copy number: 2.07 × 10^3 copies/ng DNA

## CSCC[C@@H]1NC(=O)[C@H](CCCNC(=N)N)NC(=O)CNC(=O)[C@H](CCCCN)NC(=O)[C@H](Cc2ccccc2)NC(=O)[C@H](Cc2ccc(O)cc2)NC(=O)[C@H](CC(C)C)NC(=O)[C@H](CCC(=O)O)NC(=O)[C@H](Cc2ccccc2)NC(=O)[C@H](CO)NC(=O)[C@H](CCCCN)NC(=O)[C@H](C(C)C)NC(=O)[C@H]([C@@H](C)O)NC(=O)[C@@H]2CCCN2C(=O)[C@H]([C@@H](C)O)NC(=O)[C@H](C(C)C)NC(=O)[C@H](CO)NC(=O)[C@H](Cc2ccc(O)cc2)NC(=O)[C@H]([C@@H](C)O)NC(=O)[C@@H](NC(=O)[C@H](CCC(N)=O)NC(C)=O)CSSC[C@@H](C(=O)N2CCC[C@H]2C(N)=O)NC(=O)[C@H](CO)NC1=O [LBD1] (HELM PEPTIDE1{[ac].Q.C.T.Y.S.V.T.P.T.V.K.S.F.E.L.Y.F.K.G.R.M.S.C.P.[am]}$PEPTIDE1,PEPTIDE1,3:R3-24:R3$$$V2.0)
M. luteus
  Inhibition zone: Obvious inhibition zones
WSSV
  WSSV copy number: 4.36 × 10^3 copies/ng DNA
E. coli
  Inhibition zone: apparent inhibition zones

## CSCC[C@@H]1NC(=O)[C@H](CCCNC(=N)N)NC(=O)CNC(=O)[C@H](CC(N)=O)NC(=O)[C@H](Cc2ccccc2)NC(=O)[C@H](Cc2ccc(O)cc2)NC(=O)[C@H](CC(C)C)NC(=O)[C@H](CCC(=O)O)NC(=O)[C@H](Cc2c[nH]c3ccccc23)NC(=O)[C@H](CCCNC(=N)N)NC(=O)[C@H](Cc2ccc(O)cc2)NC(=O)[C@H](Cc2ccccc2)NC(=O)[C@H](CO)NC(=O)[C@@H]2CCCN2C(=O)[C@H](CCCNC(=N)N)NC(=O)[C@H](CCC(N)=O)NC(=O)[C@H](CO)NC(=O)[C@H](Cc2ccc(O)cc2)NC(=O)[C@H](CCCNC(=N)N)NC(=O)[C@@H](NC(=O)[C@H](CO)NC(C)=O)CSSC[C@@H](C(=O)N2CCC[C@H]2C(N)=O)NC(=O)[C@H](Cc2c[nH]c3ccccc23)NC1=O [LBD4] (HELM PEPTIDE1{[ac].S.C.R.Y.S.Q.R.P.S.F.Y.R.W.E.L.Y.F.N.G.R.M.W.C.P.[am]}$PEPTIDE1,PEPTIDE1,3:R3-24:R3$$$V2.0)
WSSV
  WSSV copy number: 7.24 × 10^4 copies/ng DNA
E. coli
  Inhibition zone: apparent inhibition zones
